# Measurements from patent US12655116B2, “Substituted isophthalic acid diamides” (Bayer Aktiengesellschaft, priority 2020, dated 2026).
# Key:
# [1] = tested on: MATIN; experiment: Post-emergence herbicidal action against MATIN; assay type: in vivo, Matricaria inodora; settings: for pest or weed control at 5 g/ha / pest or weed control at 20 g/ha: Tripleurospermum inodorum, 504 h
# How it was run: (§1)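 Spray, one-leaf stage: WP or EC compound in water, 600–800 l/ha, 0.2% wetting agent. Plants held about 3 weeks in the greenhouse, then visually rated in percent of kill compared with untreated controls.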
# [2] = tested on: SETVI; experiment: Post-emergence herbicidal action against SETVI; assay type: in vivo, Setaria viridis; settings: Setaria viridis, 504 h; for pest or weed control at 20 g/ha: dosage 20 g/ha
# How it was run: as §1
# [3] = tested on: SETVI; experiment: Pre-emergence herbicidal action against SETVI; assay type: in vivo, Setaria viridis
# How it was run: (§2)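 Pre-emergence soil-surface spray of formulated compound (WP or EC; 600 to 800 l/ha; 0.2% wetting agent) over seeds sown in sandy loam. After 3 weeks under greenhouse conditions, damage is estimated visually in percent against untreated plants.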
# [4] = tested on: LOLRI; experiment: Pre-emergence herbicidal action against LOLRI; assay type: in vivo, Lolium rigidum; settings: 80 g/ha; for pest or weed control at 80 g/ha: Lolium rigidum, 504 h
# How it was run: as §2
# [5] = tested on: MATIN; experiment: Pre-emergence herbicidal action against MATIN; assay type: in vivo, Matricaria inodora; settings: for pest or weed control at 20 g/ha / pest or weed control at 80 g/ha: Tripleurospermum inodorum, 504 h
# How it was run: as §2
# [6] = tested on: ALOMY; experiment: Post-emergence herbicidal action against ALOMY; assay type: in vivo, Alopecurus myosuroides; settings: Alopecurus myosuroides, 504 h, visual assessment about 3 weeks after treatment vs untreated controls; for pest or weed control at 5 g/ha: dosage 5 g/ha; for pest or weed control at 20 g/ha: dosage 20 g/ha
# How it was run: as §1
# [7] = tested on: ABUTH; experiment: Post-emergence herbicidal action against ABUTH; assay type: in vivo, Abutilon theophrasti; settings: visual assessment about 3 weeks after treatment vs untreated controls; for pest or weed control at 5 g/ha / pest or weed control at 20 g/ha: Abutilon theophrasti, 504 h; for pest or weed control at 5 g/ha: dosage 5 g/ha
# How it was run: as §1
# [8] = tested on: ABUTH; experiment: Pre-emergence herbicidal action against ABUTH; assay type: in vivo, Abutilon theophrasti
# How it was run: as §2
# [9] = tested on: VIOTR; experiment: Pre-emergence herbicidal action against VIOTR; assay type: in vivo, Viola tricolor; settings: for pest or weed control at 20 g/ha / pest or weed control at 80 g/ha: Viola tricolor, 504 h
# How it was run: as §2
# [10] = tested on: PHBPU; experiment: Post-emergence herbicidal action against PHBPU; assay type: in vivo, Pharbitis purpurea; settings: for pest or weed control at 20 g/ha: Ipomoea purpurea, 504 h
# How it was run: as §1
# [11] = tested on: AVEFA; experiment: Post-emergence herbicidal action against AVEFA; assay type: in vivo, Avena fatua; settings: 20 g/ha, visual assessment about 3 weeks after treatment, 100% = plants have died, 0% = like control plants; for pest or weed control at 20 g/ha: Avena fatua, 504 h
# How it was run: as §1
# [12] = tested on: DIGSA; experiment: Pre-emergence herbicidal action against DIGSA; assay type: in vivo, Digitaria sanguinalis; settings: for pest or weed control at 20 g/ha / pest or weed control at 80 g/ha: Digitaria sanguinalis, 504 h
# How it was run: as §2
# [13] = tested on: PHBPU; experiment: Pre-emergence herbicidal action against PHBPU; assay type: in vivo, Pharbitis purpurea
# How it was run: as §2
# [14] = tested on: AMARE; experiment: Pre-emergence herbicidal action against AMARE; assay type: in vivo, Amaranthus retroflexus; settings: for pest or weed control at 20 g/ha / pest or weed control at 80 g/ha: Amaranthus retroflexus, 504 h
# How it was run: as §2
# [15] = tested on: ECHCG; experiment: Post-emergence herbicidal action against ECHCG; assay type: in vivo, Echinochloa crus-galli
# How it was run: as §1
# [16] = tested on: AMARE; experiment: Post-emergence herbicidal action against AMARE; assay type: in vivo, Amaranthus retroflexus; settings: 20 g/ha, visual assessment about 3 weeks after treatment, 100% = plants have died, 0% = like control plants; for pest or weed control at 20 g/ha: Amaranthus retroflexus, 504 h
# How it was run: as §1
# [17] = tested on: ALOMY; experiment: Pre-emergence herbicidal action against ALOMY; assay type: in vivo, Alopecurus myosuroides; settings: pre-emergence; for pest or weed control at 80 g/ha / pest or weed control at 20 g/ha: Alopecurus myosuroides, 504 h; for pest or weed control at 20 g/ha: scored visually after 3 weeks, 100% = plants have died, 0% = like control plants
# How it was run: as §2
# [18] = tested on: VERPE; experiment: Pre-emergence herbicidal action against VERPE; assay type: in vivo, Veronica persica
# How it was run: as §2
# [19] = tested on: AVEFA; experiment: Pre-emergence herbicidal action against AVEFA; assay type: in vivo, Avena fatua; settings: pre-emergence; for pest or weed control at 80 g/ha / pest or weed control at 20 g/ha: Avena fatua, 504 h; for pest or weed control at 20 g/ha: scored visually after 3 weeks, 100% = plants have died, 0% = like control plants
# How it was run: as §2
# [20] = tested on: ECHCG; experiment: Pre-emergence herbicidal action against ECHCG; assay type: in vivo, Echinochloa crus-galli; settings: 80 g/ha; for pest or weed control at 80 g/ha: Echinochloa crus-galli, 504 h
# How it was run: as §2
# [21] = tested on: DIGSA; experiment: Post-emergence herbicidal action against DIGSA; assay type: in vivo, Digitaria sanguinalis; settings: 20 g/ha
# How it was run: as §1
# [22] = tested on: VERPE; experiment: Post-emergence herbicidal action against VERPE; assay type: in vivo, Veronica persica; settings: 20 g/ha
# How it was run: as §1
# [23] = tested on: VIOTR; experiment: Post-emergence herbicidal action against VIOTR; assay type: in vivo, Viola tricolor; settings: 20 g/ha
# How it was run: as §1
# [24] = Setaria viridis, 504 h, dosage 80 g/ha
# [25] = Abutilon theophrasti, 504 h, 80 g/ha, scored visually after 3 weeks vs untreated controls (100% = plants have died, 0% = like control plants)
# [26] = 20 g/ha, scored visually after 3 weeks vs untreated controls, 100% = plants have died, 0% = like control plants
# [27] = 80 g/ha, scored visually after 3 weeks vs untreated controls, 100% = plants have died, 0% = like control plants
# [28] = Echinochloa crus-galli, 504 h, dosage 20 g/ha
# [29] = 80 g/ha, scored visually after 3 weeks vs untreated controls (100% = plants have died, 0% = like control plants)
# [30] = Veronica persica, 504 h, dosage 80 g/ha
smiles,measurement,setting,value
CCn1nnnc1NC(=O)c1ccc(C(F)(F)F)c(C(=O)NC(C)C)c1C [Example 2-33],pest or weed control at 5 g/ha,[1]; dosage 5 g/ha,90%
same,pest or weed control at 20 g/ha,[1]; dosage 20 g/ha,90%
same,pest or weed control at 5 g/ha,[2]; dosage 5 g/ha,80%
same,pest or weed control at 20 g/ha,[2],100%
same,pest or weed control at 20 g/ha,"[3]; Setaria viridis, 504 h, dosage 20 g/ha",80%
same,pest or weed control at 80 g/ha,[3]; [24],100%
same,pest or weed control at 80 g/ha,[4],80%
same,pest or weed control at 20 g/ha,[5]; dosage 20 g/ha,100%
same,pest or weed control at 80 g/ha,[5]; dosage 80 g/ha,100%
same,pest or weed control at 5 g/ha,[6],90%
same,pest or weed control at 20 g/ha,[6],100%
same,pest or weed control at 5 g/ha,[7],90%
same,pest or weed control at 20 g/ha,[7]; dosage 20 g/ha,90%
same,pest or weed control at 80 g/ha,[8]; [25],100%
same,pest or weed control at 20 g/ha,"[8]; Abutilon theophrasti, 504 h, dosage 20 g/ha, scored visually after 3 weeks vs untreated controls, 100% = plants have died, 0% = like control plants, read-out: Pre-emergence action against ABUTH (herbicidal activity in percent)",100%
same,pest or weed control at 20 g/ha,[9]; dosage 20 g/ha,100%
same,pest or weed control at 80 g/ha,[9]; dosage 80 g/ha,100%
same,pest or weed control at 20 g/ha,[10]; dosage 20 g/ha,90%
same,pest or weed control at 20 g/ha,[11],100%
same,pest or weed control at 20 g/ha,[12]; dosage 20 g/ha,100%
same,pest or weed control at 80 g/ha,[12]; dosage 80 g/ha,100%
same,pest or weed control at 20 g/ha,"[13]; Ipomoea purpurea, 504 h, dosage 20 g/ha",80%
same,pest or weed control at 80 g/ha,"[13]; Ipomoea purpurea, 504 h, dosage 80 g/ha",80%
same,pest or weed control at 20 g/ha,[14]; [26],100%
same,pest or weed control at 80 g/ha,[14]; [27],100%
same,pest or weed control at 5 g/ha,"[15]; Echinochloa crus-galli, 504 h, dosage 5 g/ha",90%
same,pest or weed control at 20 g/ha,[15]; [28],100%
same,pest or weed control at 20 g/ha,[16],100%
same,pest or weed control at 80 g/ha,[17]; [29],100%
same,pest or weed control at 20 g/ha,[17],90%
same,pest or weed control at 20 g/ha,"[18]; Veronica persica, 504 h, dosage 20 g/ha",80%
same,pest or weed control at 80 g/ha,[18]; [30],90%
same,pest or weed control at 80 g/ha,[19]; 80 g/ha,90%
same,pest or weed control at 20 g/ha,[19],80%
same,pest or weed control at 80 g/ha,[20],100%
CCn1nnnc1NC(=O)c1ccc(C(F)(F)F)c(C(=O)NC(C)C2CC2)c1Cl (stereo not drawn) [Example 2-135],Post-emergence action against MATIN in %,[1]; dosage 5 g/ha,90%
same,Post-emergence action against MATIN in %,[1]; dosage 20 g/ha,90%
same,Pre-emergence action against SETVI in %,[3]; dosage 80 g/ha,100%
same,Pre-emergence action against LOLRI in %,[4],80%
same,Post-emergence action against DIGSA,[21],80%
same,Pre-emergence action against MATIN in %,[5]; dosage 20 g/ha,90%
same,Pre-emergence action against MATIN in %,[5]; dosage 80 g/ha,100%
same,Post-emergence action against ABUTH in %,[7]; dosage 20 g/ha,80%
same,Pre-emergence action against ABUTH (herbicidal activity),[8]; [29],100%
same,Pre-emergence action against ABUTH (herbicidal activity in percent),"[8]; dosage 20 g/ha, scored visually after 3 weeks vs untreated controls, 100% = plants have died, 0% = like control plants",100%
same,Post-emergence action against VERPE in %,[22],90%
same,Pre-emergence action against VIOTR in %,[9]; dosage 20 g/ha,100%
same,Pre-emergence action against VIOTR in %,[9]; dosage 80 g/ha,100%
same,Post-emergence action against PHBPU in %,[10]; dosage 5 g/ha,80%
same,Post-emergence action against PHBPU in %,[10]; dosage 20 g/ha,80%
same,Post-emergence action at 20 g/ha against AVEFA in %,[11],80%
same,Pre-emergence action against DIGSA in %,[12]; dosage 20 g/ha,100%
same,Pre-emergence action against DIGSA in %,[12]; dosage 80 g/ha,100%
same,Pre-emergence action against PHBPU in %,[13]; dosage 80 g/ha,80%
same,Pre-emergence action against AMARE in %,[14]; [26],100%
same,Pre-emergence action against AMARE in %,[14]; [29],100%
same,Post-emergence action against ECHCG in %,[15]; dosage 5 g/ha,80%
same,Post-emergence action against ECHCG in %,[15]; dosage 20 g/ha,90%
same,Post-emergence action at 20 g/ha against AMARE in %,[16],90%
same,Pre-emergence action against ALOMY (herbicidal activity),[17]; [29],90%
same,Pre-emergence action against VERPE in %,[18]; dosage 80 g/ha,100%
same,Pre-emergence action against AVEFA in %,[19]; 80 g/ha,90%
same,Pre-emergence action against ECHCG in %,[20],100%
same,Post-emergence action against VIOTR in %,[23],90%
CCNC(=O)c1c(Br)ccc(C(=O)Nc2nnnn2CC)c1Cl [Example 2-178],pest or weed control at 5 g/ha,[1]; dosage 5 g/ha,90%
same,pest or weed control at 20 g/ha,[1]; dosage 20 g/ha,90%
same,pest or weed control at 20 g/ha,[2],90%
same,pest or weed control at 80 g/ha,[3]; [24],100%
same,pest or weed control at 80 g/ha,[4],80%
same,pest or weed control at 20 g/ha,[5]; dosage 20 g/ha,90%
same,pest or weed control at 80 g/ha,[5]; dosage 80 g/ha,100%
same,pest or weed control at 5 g/ha,[6],80%
same,pest or weed control at 20 g/ha,[6],90%
same,pest or weed control at 5 g/ha,[7],90%
same,pest or weed control at 20 g/ha,[7]; dosage 20 g/ha,90%
same,pest or weed control at 80 g/ha,[8]; [25],100%
same,pest or weed control at 20 g/ha,[9]; dosage 20 g/ha,100%
same,pest or weed control at 80 g/ha,[9]; dosage 80 g/ha,100%
same,pest or weed control at 20 g/ha,[10]; dosage 20 g/ha,90%
same,pest or weed control at 20 g/ha,[11],80%
same,pest or weed control at 20 g/ha,[12]; dosage 20 g/ha,100%
same,pest or weed control at 80 g/ha,[12]; dosage 80 g/ha,100%
same,pest or weed control at 20 g/ha,[14]; [26],100%
same,pest or weed control at 80 g/ha,[14]; [27],100%
same,pest or weed control at 20 g/ha,[15]; [28],90%
same,pest or weed control at 20 g/ha,[16],100%
same,pest or weed control at 80 g/ha,[17]; [29],100%
same,pest or weed control at 20 g/ha,[17],80%
same,pest or weed control at 80 g/ha,[18]; [30],90%
same,pest or weed control at 80 g/ha,[19]; 80 g/ha,100%
same,pest or weed control at 20 g/ha,[19],90%
same,pest or weed control at 80 g/ha,[20],100%
same,pest or weed control at 20 g/ha,"[23]; Viola tricolor, 504 h",90%
